Measurements taken from patent US20210045387A1, “COMPOSITIONS AND METHODS TO INHIBIT ARTHROPOD HOST-SEEKING BEHAVIOR” (The Rockefeller University, priority 2019, published 2021).

Tests used:
human NPY receptors = experiment: Cell-based GCaMP6s assay of human NPY receptor activation; conditions: HEK cells, GCaMP6s readout, FIG. 2
Source text: (§1) The six compounds were screened in vitro against the panel of all 49 known Ae. aegypti peptide receptors from both L3 and L5 genome annotations, as well as human NPY receptors. FIG. 2 illustrates the level of activation of related NPY-like receptors by Ae. aegypti NPYLR7 agonists in a variety of organisms in a cell-based assay. HEK cells were transfected with receptor cDNA, promiscuous Gα subunit, and GCaMP6s. Activation was read out as increase in GFP fluorescence and EC50 values were calculated on a 6 point dose-response curve (FIG. 2). The vertical axis of each box represents NPY-related receptors for each organism: for instance, Ae. aegypti has three receptors that were tested in this assay, while Ae. Albopictus has four. […] Albopictus. The horizontal axis indicates the compound tested. […] Compounds 6, 7, 2, 5, 1, and 9 were also tested.

[1] = tested on: NPY-like receptors in non-human organisms; experiment: Cell-based GCaMP6s assay of related NPY-like receptors from a variety of organisms; conditions: HEK cells, GCaMP6s readout, FIG. 2
Source text: as §1

[2] = tested on: Aedes albopictus NPY-like receptors; experiment: Cell-based GCaMP6s assay of Aedes albopictus NPY-like receptors; conditions: FIG. 2
Source text: as §1
(§2) Aedes albopictus host-seeking in a miniport olfactometer two days after feeding the indicated meals (n=6-34, 15-25 females/trial) is shown in FIG. 5. Data are plotted as median with range.

[3] = tested on: Aedes albopictus mosquitoes; experiment: Miniport olfactometer host-seeking assay in Aedes albopictus; assay type: in vivo; conditions: two days after feeding, FIG. 5
Source text: as §2

Female mosquitoes = experiment: Live host assay: blood-feeding on an anesthetized mouse (mark-release-recapture); assay type: in vivo, Ae. aegypti; conditions: 100 μM in saline fed two days prior
Source text: Females from each feeding group were separately marked with one of three different paint powders using the “shake in a bag” technique (Verhulst et al., 2013), and all three of these groups were pooled and allowed to recover together in a cage. […] Females were scored for powder color to indicate treatment condition and for the presence of fresh blood in the midgut. Similar to the results in host-seeking assays, non-blood-fed and saline-fed females consumed fresh blood at high levels. In contrast, females that had fed on sheep blood two days prior rarely consumed fresh blood. […] (Compound designations shown as circled numbers.)

SMILES | Activation of human NPY receptors (human NPY receptors) | Activation of NPY-like receptors in non-human organisms [1] | Activation of Aedes albopictus NPY-like receptors in vitro [2] | Suppression of host-seeking in Aedes albopictus, miniport olfactometer [3] | Blood-feeding on a live host (anesthetized mouse) (Female mosquitoes; 15 minutes access to mouse) | Blood-feeding on a live host, NPYLR7 mutants (Female mosquitoes; NPYLR7 mutant females)
CCc1nc(NC(=N)N)nc2cc(C)ccc12 [Compound 5] | none of these compounds activates any of the human receptors | activate many of the receptors in non-human organisms | – | – | – | –
COc1ccc(CC2c3cc(OC)c(OC)cc3CC[N+]2(C)CCC(=O)OCCCCCOC(=O)CC[N+]2(C)CCc3cc(OC)c(OC)cc3C2Cc2ccc(OC)c(OC)c2)cc1OC (centres unmarked) [Compound 9] | none of these compounds activates any of the human receptors | activate many of the receptors in non-human organisms | – | – | – | –
CC(C)(C)c1cnc(CSc2cnc(NC(=O)C3CCNCC3)s2)o1 [Compound 6] | none of these compounds activates any of the human receptors | activate many of the receptors in non-human organisms | activates Aedes albopictus NPY-like receptors in vitro | suppresses host-seeking in Aedes albopictus mosquitoes | – | –
COc1ccc2nc(N)nc(C)c2c1 [Compound 2] | none of these compounds activates any of the human receptors | activate many of the receptors in non-human organisms | – | – | – | –
COc1ccc2c(C)nc(NC(=N)N)nc2c1 [Compound 1] | none of these compounds activates any of the human receptors | activate many of the receptors in non-human organisms | – | – | very low levels of blood-feeding on a live host | resistant to this effect
